How the values were obtained:
[1] = Biodistribution of i.v. administered compound in HeLa tumor bearing mice; assay type: in vivo; conditions: 2 nmoles i.v., 24 hr, excised tissues, reflectance mode
Description: Female NU/NU mice 6-8 weeks old (Charles River Laboratory, Wilmington, MA) were injected subcutaneously (s.c.) with HeLa cells (5×10^6) in the first mammary fat pads. Once tumors reached the desired volume (measured with calipers using the formula volume mm^3=(length×width^2)/2), mice were injected i.v. with compound C5 (2 nmoles) or nonbinding control D3. Mice were sacrificed by carbon dioxide asphyxiation 24 hr later and certain tissues removed, rinsed with saline, blotted dry, and the imaged on a VisEn FMT 2500 using the reflectance mode. Regions of interest (ROIs) were drawn around each organ using the FMT Software and the mean fluorescence (reported as counts/energy) determined for each organ and normalized to the mean fluorescence in tumors taken to be 100%.

HeLa tumors [2] = assay: Detection of in vivo induction of hypoxia in mice with HeLa tumors (FRI of excised tumors); conditions: 2 nmol i.v., tumors excised and imaged by FRI 24 hours after injection
Description: Female nu/nu mice at 4-5 weeks old, obtained from (Harlan Laboratory, Indianapolis, IN) were injected subcutaneously (s.c.) with HeLa cells (1.5×10^6 cells/site) in the mammary fat pads. Once tumors reached the desired volume of 600-700 mm^3 (measured with calipers using the formula volume mm^3=length×width^2/2), mice were grouped randomly (n=4-5 mice/group) for with some exposed to controlled hypoxic environmental conditions (8% oxygen) in a chamber with monitored oxygen levels. Control mice with matched tumor volumes were maintained under normal housing conditions. C5, (2 nmol) was injected intravenously to all mice at 24 hours after the initiation of the experiment. Hypoxic mice were placed back into the hypoxic chamber after the injection, and tumors were excised and imaged by fluorescence reflectance imaging (FRI) 24 hours following injection. FIGS. 6A-B show fluorescence images of the excised tumors from mice that were placed in normal air (left) and 8% 02 (right).

HeLa tumors [3] = assay: Imaging of tumors in vivo using CA agents (planar reflectance and FMT); conditions: NU/NU mice, bilateral HeLa tumors, 2 nmoles i.v., 24 hrs post-injection
Description: In this experiment, NU/NU mice 6-8 weeks old (Charles River Laboratory, Wilmington, MA) were injected subcutaneously (s.c.) with about 2×10^6 HeLa cells bilaterally in each mammary fat pad. When tumors reached an approximate size of 3×3 mm, mice were injected intravenously (i.v.) with 2 nmoles of carbonic anhydrase agent C5 or nonbinding control agent D3 (5 mice/probe+2 mice/no probe as control) in 100 μL volume via tail vein. Imaging was conducted at 24 hrs post-injection using a Fluorescence Molecular Tomography system (VisEn Medical, Bedford, MA) that is commercially available.

HeLa tumors [4] = assay: Effect of acetazolamide treatment on carbonic anhydrase signal in HeLa tumor-bearing mice (FMT); assay type: in vivo; conditions: for accumulation in tumors as quantified by FMT (FIG. 5B): 24 hours
Description: HeLa tumor-bearing mice were randomized once their tumors reached the desired volume and injected i.v. with either C5 (2 nmoles). For competition studies, mice were injected with the acetazolamide (10 mg/kg) followed 60 minutes later by compound C5 (2 nmoles). Imaging was performed 24 hours after administration of the agents using the FMT 2500.

CC1(C)C(/C=C/C(=C/C=C2/N(CCCS(=O)(=O)O)c3ccc4c(S(=O)(=O)O)cc(S(=O)(=O)O)cc4c3C2(C)C)c2ccc(C(=O)NCCC(=O)Nc3nnc(S(N)(=O)=O)s3)cn2)=[N+](CCCS(=O)(=O)[O-])c2ccc3c(S(=O)(=O)O)cc(S(=O)(=O)O)cc3c21 [Compound C5, 3-(2-((1E,3Z,5E)-5-(1,1-dimethyl-6,8-disulfo-3-(3-sulfopropyl)-1H-benzo[e]indol-2(3H)-ylidene)-3-(5-((3-oxo-3-((5-sulfamoyl-1,3,4-thiadiazol-2-yl)amino)propyl)carbamoyl)pyridin-2-yl)penta-1,3-dien-1-yl)-1,1-dimethyl-6,8-disulfo-1H-benzo[e]indol-3-ium-3-yl)propane-1-sulfonate]
tissue fluorescence (biodistribution), normalized to tumors (FIG. 4) [1]: very low in most tissues with the high concentrations found in tumors, and lower concentrations accumulated in the kidneys
uptake in excised tumors, hypoxic atmosphere (8% oxygen) versus normal air (FIGS. 6A-B) (HeLa tumors [2]): significantly greater uptake
tumor signal by planar reflectance and tomographic imaging (HeLa tumors [3]): tumors can be imaged effectively
accumulation in tumors as quantified by FMT (FIG. 5B) (HeLa tumors [4]; 2 nmoles i.v., no acetazolamide): 116 pmol
accumulation in tumors as quantified by FMT (FIG. 5B) (HeLa tumors [4]; acetazolamide 10 mg/kg 60 minutes before agent (2 nmoles i.v.)): 39 pmol
tumor signal in tomographic images after acetazolamide compared to untreated animals (FIG. 5A) (HeLa tumors [4]; acetazolamide 10 mg/kg 60 minutes before agent (2 nmoles i.v.), imaging at 24 hours): reduced signal
less tumor signal in acetazolamide treated animals (HeLa tumors [4]; acetazolamide 10 mg/kg 60 minutes before agent, versus untreated): approximately 66%
